Several values for one entry are separate records, joined by “and”; a condition that tells them apart may be missing. Equal values may be shown once. Inconclusive results and toxic doses are left out. No stated cut-off is given here; in the data, active means T/C of 150% or more; inactive means T/C below 125%.
Test system: L1210 leukemia ip in BDF1 mice, survival T/C
Assay: NCI In Vivo Anticancer Drug Screen. Data for tumor model L1210 Leukemia (intraperitoneal) in B6D2F1 (BDF1) mice
Conditions: endpoint: mean survival time, higher = longer survival
In short: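 Each compound was tested against a transplantable tumor grown in mice. The endpoint was survival, with treated animals benchmarked against vehicle controls as a simple ratio.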

[1] = dose: 100.0 mg/kg/injection, schedule: Q01DX001 (ip), vehicle: carboxymethylcellulose (CMC)
[2] = dose: 400.0 mg/kg/injection, schedule: Q01DX001 (ip), vehicle: carboxymethylcellulose (CMC)
[3] = dose: 100.0 mg/kg/injection, schedule: Q01DX001 (ip), vehicle: saline
[4] = dose: 200.0 mg/kg/injection, schedule: Q01DX001 (ip), vehicle: saline
[5] = dose: 400.0 mg/kg/injection, schedule: Q01DX001 (ip), vehicle: saline

Measured: T/C

CCC(C)C(C)(CO)CO (configuration not stated)
inactive: dose: 100.0 mg/kg/injection, schedule: Q01DX009 (ip), vehicle: saline with Tween-80 102 % of control | dose: 100.0 mg/kg/injection, schedule: Q04DX003 (ip), vehicle: saline 90 % of control | dose: 200.0 mg/kg/injection, schedule: Q01DX009 (ip), vehicle: saline with Tween-80 88 % of control | dose: 200.0 mg/kg/injection, schedule: Q04DX003 (ip), vehicle: saline 93 % of control | dose: 400.0 mg/kg/injection, schedule: Q01DX009 (ip), vehicle: saline with Tween-80 89 % of control | dose: 400.0 mg/kg/injection, schedule: Q04DX003 (ip), vehicle: saline 97 % of control

Nc1nc(N)c2cc(NCc3ccc(Br)cc3)ccc2n1
inactive: dose: 6.25 mg/kg/injection, schedule: Q01DX009 (ip), vehicle: saline with Tween-80 103 % of control | dose: 12.5 mg/kg/injection, schedule: Q01DX009 (ip), vehicle: saline with Tween-80 100 % of control | dose: 25.0 mg/kg/injection, schedule: Q04DX003 (ip), vehicle: saline 96 % of control

Cc1nc(C#N)c(C#N)nc1-c1ccccc1
inactive: dose: 100.0 mg/kg/injection, schedule: Q04DX002 (ip), vehicle: saline with Tween-80 95 % of control | dose: 200.0 mg/kg/injection, schedule: Q04DX002 (ip), vehicle: saline with Tween-80 95 % of control | dose: 400.0 mg/kg/injection, schedule: Q04DX002 (ip), vehicle: saline with Tween-80 95 % of control

O=C1C2C3C=CC(C3)C2C(=O)C2C3C=CC(C3)C12 (configuration not stated)
inactive: dose: 50.0 mg/kg/injection, schedule: Q01DX001 (ip), vehicle: carboxymethylcellulose (CMC) 103 % of control | [1] 93 % of control | dose: 200.0 mg/kg/injection, schedule: Q01DX001 (ip), vehicle: carboxymethylcellulose (CMC) 100 % of control | [2] 112 % of control

CN(N=O)C(=O)NC1CC2CCC1C2 (configuration not stated)
inactive: dose: 4.0 mg/kg/injection, schedule: Q01DX001 (ip), vehicle: other 104 % of control | dose: 8.0 mg/kg/injection, schedule: Q01DX001 (ip), vehicle: other 104 % of control | dose: 16.0 mg/kg/injection, schedule: Q01DX001 (ip), vehicle: other 108 % of control | dose: 31.0 mg/kg/injection, schedule: Q01DX001 (ip), vehicle: other 104 % of control | dose: 62.0 mg/kg/injection, schedule: Q01DX001 (ip), vehicle: other 100 % of control | dose: 125.0 mg/kg/injection, schedule: Q01DX001 (ip), vehicle: other 104 % of control | dose: 250.0 mg/kg/injection, schedule: Q01DX001 (ip), vehicle: other 112 % of control | dose: 375.0 mg/kg/injection, schedule: Q01DX001 (ip), vehicle: other 112 % of control | dose: 500.0 mg/kg/injection, schedule: Q01DX001 (ip), vehicle: other 118 % of control

O=S(=O)(Sc1ccc(Cl)cc1)c1ccc(Cl)cc1
inactive: dose: 100.0 mg/kg/injection, schedule: Q04DX002 (ip), vehicle: gum acacia 101 % of control | dose: 200.0 mg/kg/injection, schedule: Q04DX002 (ip), vehicle: gum acacia 107 % of control and 91 % of control | dose: 400.0 mg/kg/injection, schedule: Q04DX002 (ip), vehicle: gum acacia 104 % of control

C=CCc1ccc(OC(C)OCCOCCOCC)c(OC)c1 (configuration not stated)
inactive: dose: 100.0 mg/kg/injection, schedule: Q04DX002 (ip), vehicle: saline 92 % of control | dose: 200.0 mg/kg/injection, schedule: Q04DX002 (ip), vehicle: saline 96 % of control | dose: 400.0 mg/kg/injection, schedule: Q04DX002 (ip), vehicle: saline 101 % of control

S=P(NCCNP(=S)(N1CC1)N1CC1)(N1CC1)N1CC1
inactive: dose: 1.5 mg/kg/injection, schedule: Q01DX015 (ip), vehicle: saline 96 % of control | dose: 3.0 mg/kg/injection, schedule: Q01DX015 (ip), vehicle: saline 98 % of control | dose: 6.0 mg/kg/injection, schedule: Q01DX015 (ip), vehicle: saline 101 % of control | dose: 12.0 mg/kg/injection, schedule: Q01DX009 (ip), vehicle: carboxymethylcellulose (CMC) 104 % of control | dose: 12.0 mg/kg/injection, schedule: Q01DX015 (ip), vehicle: saline 102 % of control | dose: 12.5 mg/kg/injection, schedule: Q01DX009 (ip), vehicle: Klucel (hydroxypropylcellulose) (HPC) 108 % of control | dose: 12.5 mg/kg/injection, schedule: Q01DX009 (ip), vehicle: saline 112 % of control | dose: 25.0 mg/kg/injection, schedule: Q01DX009 (ip), vehicle: Klucel (hydroxypropylcellulose) (HPC) 120 % of control | dose: 25.0 mg/kg/injection, schedule: Q01DX009 (ip), vehicle: carboxymethylcellulose (CMC) 121 % of control | dose: 50.0 mg/kg/injection, schedule: Q01DX009 (ip), vehicle: Klucel (hydroxypropylcellulose) (HPC) 97 % of control | dose: 50.0 mg/kg/injection, schedule: Q01DX009 (ip), vehicle: carboxymethylcellulose (CMC) 115 % of control | [3] 106 % of control | dose: 100.0 mg/kg/injection, schedule: Q01DX009 (ip), vehicle: carboxymethylcellulose (CMC) 109 % of control | dose: 100.0 mg/kg/injection, schedule: Q01DX009 (ip), vehicle: saline 120 % of control | [4] 104 % of control | [5] 120 % of control

O=P(OCc1ccccc1)(N(CCCl)CCCl)N1CCN(Cc2ccccc2)CC1 (configuration not stated)
inactive: dose: 10.0 mg/kg/injection, schedule: Q01DX Z (ip), vehicle: saline 93 % of control | dose: 30.0 mg/kg/injection, schedule: Q01DX Z (ip), vehicle: saline 90 % of control | dose: 100.0 mg/kg/injection, schedule: Q01DX Z (ip), vehicle: saline 95 % of control

CSc1ccccc1N=Cc1cc(Cl)ccc1O
inactive: dose: 100.0 mg/kg/injection, schedule: Q01DX001 (ip), vehicle: saline with Tween-80 90 % of control

C[C@]12CCC(=O)C=C1CC[C@@H]1[C@@H]2[C@@H](O)C[C@@]2(C)[C@H]1CC[C@]2(O)C(=O)CO
inactive: dose: 12.0 mg/kg/injection, schedule: Q01DX015 (sc), vehicle: steriod suspending solution 100 % of control | dose: 25.0 mg/kg/injection, schedule: Q01DX015 (sc), vehicle: steriod suspending solution 100 % of control | dose: 50.0 mg/kg/injection, schedule: Q01DX015 (sc), vehicle: steriod suspending solution 102 % of control | dose: 100.0 mg/kg/injection, schedule: Q01DX001 (sc), vehicle: steriod suspending solution 102 % of control | dose: 100.0 mg/kg/injection, schedule: Q01DX Z (sc), vehicle: steriod suspending solution 101 % of control | dose: 200.0 mg/kg/injection, schedule: Q01DX001 (sc), vehicle: steriod suspending solution 108 % of control | dose: 200.0 mg/kg/injection, schedule: Q01DX Z (sc), vehicle: steriod suspending solution 102 % of control | dose: 400.0 mg/kg/injection, schedule: Q01DX001 (sc), vehicle: steriod suspending solution 108 % of control | dose: 400.0 mg/kg/injection, schedule: Q01DX Z (sc), vehicle: steriod suspending solution 102 % of control | dose: 800.0 mg/kg/injection, schedule: Q01DX Z (sc), vehicle: steriod suspending solution 94 % of control | dose: 1000.0 mg/kg/injection, schedule: Q01DX015 (sc), vehicle: steriod suspending solution 104 % of control

COC(=O)c1ccc(C(=O)OC)o1
inactive: dose: 100.0 mg/kg/injection, schedule: Q04DX002 (ip), vehicle: Klucel (hydroxypropylcellulose) (HPC) 113 % of control | dose: 200.0 mg/kg/injection, schedule: Q04DX002 (ip), vehicle: Klucel (hydroxypropylcellulose) (HPC) 98 % of control | dose: 400.0 mg/kg/injection, schedule: Q04DX002 (ip), vehicle: Klucel (hydroxypropylcellulose) (HPC) 106 % of control

CCOC(=O)c1[nH]cnc1N
inactive: [3] 96 % of control | [4] 94 % of control | [5] 96 % of control

Nc1nc(N)c(N=Cc2ccc(N(CCCl)CCCl)cc2)c(N)n1
inactive: dose: 50.0 mg/kg/injection, schedule: Q01DX001 (ip), vehicle: saline 100 % of control | [1] 103 % of control | [4] 103 % of control | [2] 100 % of control

— PubChem BioAssay AID248 (DTP/NCI, 2004)
